In patent US20230255934A1, “NURR1 RECEPTOR MODULATORS AND USES THEREOF” (The Regents of the University of California, priority 2020, published 2023):
“Also recorded” adds a separate entry of the source. Where two headings read alike, the source gives them in different places.

How the values were obtained:
Nurr1 LBD (wildtype) = molecular target: T1, Nurr1 LBD (wildtype) (Homo sapiens, UniProt P43354); experiment: Microscale thermophoresis (MST) binding to wildtype Nurr1 LBD; settings: for Binding to the Nurr1 LBD (in words): MST; for Kd: read-out: KD; for Amplitude: Table 1, MST amplitude, WT; for Response Amplitude: Table 2, MST, Wildtype
T1 construct: made in house
T1 sequence (P43354 with tags, fused parts or gaps): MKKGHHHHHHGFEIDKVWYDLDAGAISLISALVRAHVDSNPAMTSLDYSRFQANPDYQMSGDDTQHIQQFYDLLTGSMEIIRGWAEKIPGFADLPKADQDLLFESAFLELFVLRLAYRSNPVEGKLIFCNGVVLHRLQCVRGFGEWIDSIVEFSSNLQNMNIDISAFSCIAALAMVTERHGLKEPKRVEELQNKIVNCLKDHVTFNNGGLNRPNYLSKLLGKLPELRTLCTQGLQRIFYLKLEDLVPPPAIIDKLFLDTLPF
Experimental: (§1) Concentration-dependent association of the indoles with the Nurr1 LBD was carried out using microscale thermophoresis. Stock solutions (10 mM in DMSO) of each indole were serially diluted (200 μM indole, 0.5× dilutions down to 0.0061 μM) in MST buffer (25 mM HEPES, pH 7.4, 150 mM NaCl, and 0.1% Pluronic F127) containing 2% DMSO. The dilutions were carried out with 4% DMSO in the MST buffer for a total of 16 concentrations. Equivalent volumes and concentrations of the fluorescently labeled Nurr1 LBD in MST buffer were added to each ligand dilution in the series to reach a final concentration of 75 nM labeled protein. After incubating for 20 minutes, the samples were loaded into Monolith NT.115 Capillaries (Nanotemper).
(§2) Data were collected using the Monolith NT.115 System (Nanotemper), with settings for all samples at 40% excitation power and 40% MST power. The initial fluorescence was recorded for 3 sec and the thermophoresis fluorescence response was recorded for 20 sec. The data was inspected with Palmist software^5, and data points affected by initial fluorescence quenching or photobleaching were eliminated. The fluorescent response for each sample was normalized to the initial fluorescence using Palmist software to provide the values of thermophoresis (Fn). The resulting data was used to generate a plot of the change in thermophoresis (Fn-Fn0, where Fn=thermophoresis and Fn0=thermophoresis response in unbound range) versus concentration of the ligand. GraphPad Prism v. 8.3.0 software was used to fit the resulting data to a mass action equation for a specific binding with Hill slope, solving for KD: Fn-Fn0═Fmax·[L]^n/(KD^n+[L]^n), where Fmax=maximum amplitude of thermophoresis, [L]=concentration of the ligand at a specific point, KD=dissociation constant, nH=Hill Coefficient.
To investigate the potential impact of compound nano-aggregation on binding affinity, we used dynamic light scattering to inspect the aggregation of 5-chlorindole in solution and repeated the MST binding experiments in the presence of increasing concentrations of the surfactant Pluoronic F127 (FIGS. 12A-12D). […] As well, increasing concentrations of the surfactant Pluronic F127 had small effects (<2-fold) on the affinity of 5-chloroindole for the Nurr1 LBD (FIGS. 12A-12D).

Nurr1 LBD Arg563Ala = molecular target: T2, Nurr1 LBD Arg563Ala (Homo sapiens, UniProt P43354, R563A); experiment: MST binding to Arg563Ala mutant Nurr1 LBD; settings: for Amplitude: Table 1, MST amplitude, R563A; for Response Amplitude: Table 2, MST, Arg563Ala
T2 construct: Mutants of LAP2 Nurr1 were prepared by GenScript starting from LAP2 Nurr1 vector; made in house
T2 sequence (P43354 with tags, fused parts or gaps R563A): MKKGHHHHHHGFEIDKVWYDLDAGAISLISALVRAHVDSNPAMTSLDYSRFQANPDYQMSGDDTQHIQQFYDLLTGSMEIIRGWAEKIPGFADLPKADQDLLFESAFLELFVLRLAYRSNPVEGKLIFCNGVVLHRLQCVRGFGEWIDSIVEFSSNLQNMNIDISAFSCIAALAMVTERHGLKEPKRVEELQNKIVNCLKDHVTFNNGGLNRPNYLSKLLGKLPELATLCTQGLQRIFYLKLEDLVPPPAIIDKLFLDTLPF
Experimental: The plasmid used for the expression of LAP2-tagged Nurr1 LBDs (LAP2 Nurr1) was prepared by GenScript (Piscataway, N.J.) as the product of gene synthesis and subcloning into pET-21a(+) Vector (GenScript) using the Ndel and Xhol sites within the MCS. Mutants of LAP2 Nurr1 were prepared by GenScript starting from LAP2 Nurr1 vector.
as §1, §2

MN9D cells = experiment: CytoTox-Glo cytotoxicity assay; type: cell-based; settings: 24 h treatment, 10 μM unless stated
Experimental: Cytotoxicity assays were carried out using the CytoTox-Glo Cytotoxicity Assay Kit (Promega) according to the manufacturer's instructions. Briefly, MN9D cells were resuspended in DMEM/F-12 with 5% FBS at 2·10^5 cells/ml and added to an equal volume of two-fold concentrated compound in the same media containing 0.2% DMSO (prepared by diluting DMSO stock of the compound in warm DMEM/F-12 with 5% FBS; for DMSO control equivalent volume of DMSO was used instead of the compound stock), and immediately re-plated onto poly-D-lysine pre-treated 96-well white-walled flat clear bottom plate (Corning cat #3903) at a density of 1·10^4 cells/well (100 μL/well), 3 replicas per compound. As a background (BG) control, for each of the compound (or DMSO) equivalent volume of compound mixed with DMEM/F-12+5% FBS was plated. After 24 h treatment at 37° C., in 5% C02 incubator, 50 μL of CytoTox-Glo™ Cytotoxicity Assay Reagent was added to each well, mixed briefly by orbital shaking and incubated for 15 min at ambient temperature. Luminescence signal corresponding to dead cells was measured using Biotek Synergy H4 hybrid microplate reader. After the measurement, 50 μL of Lysis Reagent was added to each well, mixed, incubated for 15 min at ambient temperature, and total luminescence was measured. The percentage of viable cells was then calculated as follows: Percent Viable Cells (%)=100% (Total cell luminescence (test compound)—Dead cell luminescence (test compound))/(Total cell luminescence (DMSO)—Dead cell luminescence (DMSO)).

Structure (SMILES)	Binding to the Nurr1 LBD (in words) (Nurr1 LBD (wildtype))	Kd (Nurr1 LBD (wildtype); Nurr1 LBD) [µM]	Amplitude (Nurr1 LBD (wildtype))	Kd (Nurr1 LBD (wildtype); Table 1, Nurr1 variant WT) [µM]	Response Amplitude (Nurr1 LBD (wildtype))	Amplitude (Nurr1 LBD Arg563Ala)	Amplitude (% change) (Nurr1 LBD Arg563Ala; Table 1, R563A relative to WT) [%]	Response Amplitude (Nurr1 LBD Arg563Ala)	Cytotoxicity / cell viability (MN9D cells)	other results
Brc1ccc2[nH]ccc2c1 [5-bromoindole]	saturable binding	5	72 + 8	10	50 + 4	≤10	≥−86	≤10 (****)	somewhat toxic to cells under certain conditions	Amplitude (% change) (Nurr1 LBD (wildtype); Table 1, WT (reference)): 0; Binding to Arg563Ala mutant Nurr1 LBD (in words) (Nurr1 LBD Arg563Ala; MST): completely eliminated
Clc1ccc2[nH]ccc2c1 [5-chloroindole]	saturable binding; also recorded: comparable to DHI	15	68 + 4	25	54 + 2	23 + 2	−66	19 + 2 (****)	no significant effect on cell viability; also recorded: not cytotoxic; also recorded: non-cytotoxic	Hill coefficient nH (Nurr1 LBD (wildtype); 0.1% Pluronic F127): 2; Hill coefficient nH (Nurr1 LBD (wildtype); 0.2% Pluronic F127): 2; Kd (Nurr1 LBD (wildtype); 0.2% Pluronic F127): 8.3 ± 0.7 µM; Hill coefficient nH (Nurr1 LBD (wildtype); 0.5% Pluronic F127): 1; Kd (Nurr1 LBD (wildtype); 0.5% Pluronic F127): 10.9 ± 0.3 µM; Hill coefficient nH (Nurr1 LBD (wildtype); 1.0% Pluronic F127): 1; Kd (Nurr1 LBD (wildtype); 1.0% Pluronic F127): 9.1 ± 0.4 µM; Kd (Nurr1 LBD Arg563Ala; Table 1, Nurr1 variant R563A, read-out: KD): 13 µM; KD (% change) (Nurr1 LBD Arg563Ala; Table 1, R563A relative to WT): −48%; Kd (Nurr1 LBD Arg563Ala; Table 2, Arg563Ala, read-out: Affinity (KD)): 8.3 µM
